Assay results: patent US7915238B2, “Immunomodulatory compounds and methods of use thereof” (Eisai R & D Management Co., Ltd., priority 1999, dated 2011)

tested on: Human Whole Blood; test: Cytokine release in human whole blood (ELISA); format: cell-based; conditions: FIG. 1
Protocol: The most readily available human system to test compound activity on monocytes/macrophages is in whole blood. Various concentrations of compounds of the invention were added as 10× stocks in 50 μl of Ca^++, Mg^++-free Hank's balanced salt solution (HBSS) followed by 50 μl of HBSS into 400 μl of heparinized whole blood obtained from normal volunteers (18-51 years old; 110-230 lb.) into the wells of plastic assay plates, for a total volume of 500 μl/well (final concentration of whole blood was 80%). After a 3-hour incubation with gentle shaking at 37° C. in a 5% CO2 atmosphere, the assay plates were centrifuged at 1000×g for 10 min. at 4° C. and plasma was drawn off and frozen at −80° C. Plasma samples were analyzed for TNF-alpha, IL-10, and IL-12 by ELISA (Genzyme Corp., Cambridge, Mass.). Each assay point was tested in triplicate.
This stimulatory activity can be compared to that of 10 ng/ml endotoxin (or LPS) present in similar incubations in the same assay.

| Compound | TNF-alpha release from blood-borne cells |
| --- | --- |
| CCCCCCCCCCCCCC(=O)NC(COCC[C@@H](CCCCCCC)OC(=O)CCCCCCCCCCC)COP(=O)([O-])OCCNC(=O)NCCOP(=O)([O-])OCC(COCC[C@@H](CCCCCCC)OC(=O)CCCCCCCCCCC)NC(=O)CCCCCCCCCCCCC.[Na+].[Na+] (some centres unmarked) [ER 119327] | stimulate blood-borne cells to release TNF-alpha |
| CCCCCC/C=C\CCCC(=O)O[C@H](CCCCCCC)CCOCC(COP(=O)([O-])OCCNC(=O)NCCOP(=O)([O-])OCC(COCC[C@@H](CCCCCCC)OC(=O)CCC/C=C\CCCCCC)NC(=O)CCCCCCCCCCCCC)NC(=O)CCCCCCCCCCCCC.[Na+].[Na+] (some centres unmarked) [ER 119328] | stimulate blood-borne cells to release TNF-alpha |

same assay, conditions: TNF-alpha release; compounds tested at 10 μM; compared to 10 ng/ml LPS; 3-hour incubation

| Compound | TNF-alpha release in whole blood at 10 μM compound (% of 10 ng/ml LPS response) |
| --- | --- |
| CCCCCC/C=C\CCCC(=O)O[C@H](CCCCCCC)CCOCC(COP(=O)([O-])OCCNC(=O)C(Cc1ccc(OCCNC(=O)OC(C)(C)C)cc1)C(=O)NCCOP(=O)([O-])OCC(COCC[C@@H](CCCCCCC)OC(=O)CCC/C=C\CCCCCC)NC(=O)CC(=O)CCCCCCCCCCC)NC(=O)CC(=O)CCCCCCCCCCC.[Na+].[Na+] (some centres unmarked) [compound 019772] | 69 % of LPS |
| CCCCCCCCCCCC(=O)CC(=O)NC(COCC[C@H](O)CCCCCCC)COP(=O)([O-])OCCNC(=O)NCCOP(=O)([O-])OCC(COCC[C@H](O)CCCCCCC)NC(=O)CC(=O)CCCCCCCCCCC.[Na+].[Na+] (some centres unmarked) [compound 112043] | 0 % of LPS |
| CCCCCCCCCCCCCCCC(=O)OCC(COP(=O)(O)OCC(O)COP(=O)(O)OCC(COC(=O)CCCCCCCCCCCCCCC)OC(=O)CCCCCCCCCCCCCCC)OC(=O)CCCCCCCCCCCCCCC (centres unmarked) [compound 112071] | 0 % of LPS |
| CCCCCCC=CCC=CCCCCCCC(=O)OCC(COP(=O)(O)OCC(O)COP(=O)(O)OCC(COC(=O)CCCCCCC=CCC=CCCCCCC)OC(=O)CCCCCCC=CCC=CCCCCCC)OC(=O)CCCCCCC=CCC=CCCCCCC (centres unmarked) [compound 112072] | 0 % of LPS |
| CCCCCC/C=C\CCCC(=O)O[C@H](CCCCCCC)CCOCC(COP(=O)([O-])OCCNC(=O)NCCOP(=O)([O-])OCC(COCC[C@@H](CCCCCCC)OC(=O)CCC/C=C\CCCCCC)NC(=O)C[C@@H](CCCCCCC)OC(=O)CCC/C=C\CCCCCC)NC(=O)C[C@@H](CCCCCCC)OC(=O)CCC/C=C\CCCCCC.[Na+].[Na+] (some centres unmarked) [compound 112093] | 0 % of LPS |
| CCCCCC/C=C\CCCC(=O)O[C@H](CCCCCCC)CC(=O)NC(COCC[C@H](O)CCCCCCC)COP(=O)([O-])OCCNC(=O)c1ccccc1C(=O)NCCOP(=O)([O-])OCC(COCC[C@H](O)CCCCCCC)NC(=O)C[C@@H](CCCCCCC)OC(=O)CCC/C=C\CCCCCC.[Na+].[Na+] (some centres unmarked) [compound 112859] | 0 % of LPS |
| CCCCCC/C=C\CCCC(=O)O[C@H](CCCCCCC)CC(=O)NC(COCC[C@H](O)CCCCCCC)COP(=O)([O-])OCCNC(=O)c1cccc(C(=O)NCCOP(=O)([O-])OCC(COCC[C@H](O)CCCCCCC)NC(=O)C[C@@H](CCCCCCC)OC(=O)CCC/C=C\CCCCCC)c1.[Na+].[Na+] (some centres unmarked) [compound 112860] | 0 % of LPS |
| CCCCCC/C=C\CCCC(=O)O[C@H](CCCCCCC)CC(=O)NC(COCC[C@H](O)CCCCCCC)COP(=O)([O-])OCCNC(=O)c1ccc(C(=O)NCCOP(=O)([O-])OCC(COCC[C@H](O)CCCCCCC)NC(=O)C[C@@H](CCCCCCC)OC(=O)CCC/C=C\CCCCCC)cc1.[Na+].[Na+] (some centres unmarked) [compound 112861] | 0 % of LPS |
| CCCCCC/C=C\CCCC(=O)O[C@H](CCCCCCC)CC(=O)NC(COCC[C@H](O)CCCCCCC)COP(=O)([O-])OCCNC(=O)C1OC(C)(C)OC1C(=O)NCCOP(=O)([O-])OCC(COCC[C@H](O)CCCCCCC)NC(=O)C[C@@H](CCCCCCC)OC(=O)CCC/C=C\CCCCCC.[Na+].[Na+] (some centres unmarked) [compound 113634] | 0 % of LPS |
| CCCCCC/C=C\CCCC(=O)O[C@H](CCCCCCC)CC(=O)NC(COCC[C@H](O)CCCCCCC)COP(=O)([O-])OCCNC(=O)c1cc(O)cc(C(=O)NCCOP(=O)([O-])OCC(COCC[C@H](O)CCCCCCC)NC(=O)C[C@@H](CCCCCCC)OC(=O)CCC/C=C\CCCCCC)c1.[Na+].[Na+] (some centres unmarked) [compound 113635] | 0 % of LPS |
| CCCCCC/C=C\CCCC(=O)O[C@H](CCCCCCC)CCOCC(COP(=O)([O-])OCCNC(=O)C(Cc1ccc(O)cc1)C(=O)NCCOP(=O)([O-])OCC(COCC[C@@H](CCCCCCC)OC(=O)CCC/C=C\CCCCCC)NC(=O)CC(=O)CCCCCCCCCCC)NC(=O)CC(=O)CCCCCCCCCCC.[Na+].[Na+] (some centres unmarked) [compound 118023] | 63 % of LPS |
| CCCCCC/C=C\CCCC(=O)O[C@H](CCCCCCC)CCOCC(COP(=O)([O-])OCCNC(=O)CC(=O)NCCOP(=O)([O-])OCC(COCC[C@@H](CCCCCCC)OC(=O)CCC/C=C\CCCCCC)NC(=O)CCCCCCCCCCCCC)NC(=O)CCCCCCCCCCCCC.[Na+].[Na+] (some centres unmarked) [compound 118989] | 159 % of LPS |
| CCCCCC/C=C\CCCC(=O)O[C@H](CCCCCCC)CCOCC(COP(=O)([O-])OCCNC(=O)CC(=O)NCCOP(=O)([O-])OCC(COCC[C@@H](CCCCCCC)OC(=O)CCC/C=C\CCCCCC)NC(=O)CCCCCCCCCCC)NC(=O)CCCCCCCCCCC.[Na+].[Na+] (some centres unmarked) [compound 118999] | 105 % of LPS |
| CCCCCC/C=C\CCCC(=O)O[C@H](CCCCCCC)CCOCC(COP(=O)([O-])OCCNC(=O)CC(=O)NCCOP(=O)([O-])OCC(COCC[C@@H](CCCCCCC)OC(=O)CCC/C=C\CCCCCC)NC(=O)CCCCCCCCCCCCCCC)NC(=O)CCCCCCCCCCCCCCC.[Na+].[Na+] (some centres unmarked) [compound 119000] | 60 % of LPS |
| CCCCCC/C=C\CCCC(=O)O[C@H](CCCCCCC)CCOCC(COP(=O)([O-])OCCNC(=O)CC(=O)NCCOP(=O)([O-])OCC(COCC[C@@H](CCCCCCC)OC(=O)CCC/C=C\CCCCCC)NC(=O)C[C@H](O)CCCCCCCCCCC)NC(=O)C[C@H](O)CCCCCCCCCCC.[Na+].[Na+] (some centres unmarked) [compound 119001] | 113 % of LPS |
| CCCCCCCCCCCCCC(=O)NC(COCC[C@@H](CCCCCCC)OC(=O)CCCCCCCCCCC)COP(=O)([O-])OCCNC(=O)NCCOP(=O)([O-])OCC(COCC[C@@H](CCCCCCC)OC(=O)CCCCCCCCCCC)NC(=O)CCCCCCCCCCCCC.[Na+].[Na+] (some centres unmarked) [compound 119327] | 165 ± 33 (n = 3) % of LPS |
| CCCCCC/C=C\CCCC(=O)O[C@H](CCCCCCC)CCOCC(COP(=O)([O-])OCCNC(=O)C(Cc1ccc(OCCNC(=O)OC(C)(C)C)cc1)C(=O)NCCOP(=O)([O-])OCC(COCC[C@@H](CCCCCCC)OC(=O)CCC/C=C\CCCCCC)NC(=O)CCCCCCCCCCCCC)NC(=O)CCCCCCCCCCCCC.[Na+].[Na+] (some centres unmarked) [compound 119329] | 2 ± 2 (n = 2) % of LPS |
| CCCCCC/C=C\CCCC(=O)O[C@H](CCCCCCC)CCOCC(COP(=O)([O-])OCCNC(=O)C(CCCCNC(=O)OC(C)(C)C)C(=O)NCCOP(=O)([O-])OCC(COCC[C@@H](CCCCCCC)OC(=O)CCC/C=C\CCCCCC)NC(=O)CCCCCCCCCCCCC)NC(=O)CCCCCCCCCCCCC.[Na+].[Na+] (some centres unmarked) [compound 119521] | 103 % of LPS |
| CCCCCC/C=C\CCCC(=O)O[C@H](CCCCCCC)CCOCC(COP(=O)([O-])OCCNC(=O)C(Cc1ccc(OCCN)cc1)C(=O)NCCOP(=O)([O-])OCC(COCC[C@@H](CCCCCCC)OC(=O)CCC/C=C\CCCCCC)NC(=O)CCCCCCCCCCCCC)NC(=O)CCCCCCCCCCCCC.[Na+].[Na+] (some centres unmarked) [compound 119522] | 129 % of LPS |
| CCCCCC/C=C\CCCC(=O)O[C@H](CCCCCCC)CCOCC(COP(=O)([O-])OCCNC(=O)C(CCCCN)C(=O)NCCOP(=O)([O-])OCC(COCC[C@@H](CCCCCCC)OC(=O)CCC/C=C\CCCCCC)NC(=O)CCCCCCCCCCCCC)NC(=O)CCCCCCCCCCCCC.[Na+].[Na+] (some centres unmarked) [compound 119523] | 176 % of LPS |
| CCCCCC/C=C\CCCC(=O)O[C@H](CCCCCCC)CCOCC(COP(=O)(O)OCCNC(=O)C(Cc1ccc(OCCNC(=O)CCCCC(=O)O)cc1)C(=O)NCCOP(=O)(O)OCC(COCC[C@@H](CCCCCCC)OC(=O)CCC/C=C\CCCCCC)NC(=O)CCCCCCCCCCCCC)NC(=O)CCCCCCCCCCCCC (some centres unmarked) [compound 803045] | 65 % of LPS |
| CCCCCCCCCCCCCC(=O)NC(COCC[C@@H](CCCCCCC)OC(=O)CCCCCCCCCCC)COP(=O)([O-])OCCNC(=O)CC(=O)NCCOP(=O)([O-])OCC(COCC[C@@H](CCCCCCC)OC(=O)CCCCCCCCCCC)NC(=O)CCCCCCCCCCCCC.[Na+].[Na+] (some centres unmarked) [compound 803056] | 151 ± 42 % of LPS |

same assay, conditions: whole blood; vs. % of LPS at 10 ng/ml; read-out: WB ED50 vs LPS@ 10 ng/ml

| EC50 [nM] | Compound |
| --- | --- |
| > 10000 | CCCCCCCCCCCCCC(=O)NC(COCCC(CCCCCCC)OCCCCCCCCCCCC)COP(=O)(O)OCCCCCCCCOP(=O)(O)OCC(COCCC(CCCCCCC)OCCCCCCCCCCCC)NC(=O)CCCCCCCCCCCCC (mixture of isomers) [compound 804596] |
| 100 | CCCCCC/C=C\CCCC(=O)O[C@H](CCCCCCC)CCOCC(COP(=O)([O-])OCCNC(=O)CC(=O)NCCOP(=O)([O-])OCC(COCC[C@@H](CCCCCCC)OC(=O)CCC/C=C\CCCCCC)NC(=O)CCCCCCCCCCCCC)NC(=O)CCCCCCCCCCCCC.[Na+].[Na+] (some centres unmarked) [compound 118989] |
| 1230 | CCCCCC/C=C\CCCC(=O)O[C@H](CCCCCCC)CCOCC(COP(=O)([O-])OCCNC(=O)CC(=O)NCCOP(=O)([O-])OCC(COCC[C@@H](CCCCCCC)OC(=O)CCC/C=C\CCCCCC)NC(=O)C[C@H](O)CCCCCCCCCCC)NC(=O)C[C@H](O)CCCCCCCCCCC.[Na+].[Na+] (some centres unmarked) [compound 119001] |

| Compound | EC50 [nM] |
| --- | --- |
| CCCCCCCCCCCCCC(=O)N[C@H](COCC[C@@H](CCCCCCC)OC(=O)CCCCCCCCCCC)COP(=O)(O)OCCNC(=O)NCCOP(=O)(O)OC[C@@H](COCC[C@@H](CCCCCCC)OC(=O)CCCCCCCCCCC)NC(=O)CCCCCCCCCCCCC [ER 804678] | 18 |
| CCCCCCCCCCCCCC(=O)NC(COCC[C@@H](CCCCCCC)OC(=O)CCCCCCCCCCC)COP(=O)([O-])OCCNC(=O)NCCOP(=O)([O-])OCC(COCC[C@@H](CCCCCCC)OC(=O)CCCCCCCCCCC)NC(=O)CCCCCCCCCCCCC.[Na+].[Na+] (some centres unmarked) [compound 119327] | 15 |
